# Laboratory results from patent US12180226B2, “Spirotricycle RIPK1 inhibitors and methods of uses thereof” (Merck Sharp & Dohme LLC, priority 2021, dated 2024).
# Where a name gives a salt, the structure may show the parent alone.
# Molecular target: RIPK1 (recombinant GST-RIPK1 kinase domain, residues 1-327) (Homo sapiens (Human), UniProt Q13546)
# Assay: RIPK1-ADP-Glo Enzymatic Assay
# Format: biochemical
# Conditions: ADP-Glo; 25 nM GST-RIPK1, 300 μM ATP; assay lower limit ~25 nM; read-out: RIPK1 V0 Ec50
# Outline: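 Using dephosphorylated MBP (3 μM) as substrate and 300 μM ATP, 25 nM baculovirus-produced enzyme was reacted for 150 min after a 30-min compound pre-incubation. Luminescent ADP detection followed; lower confidence limit ~25 nM.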
# Sequence of RIPK1 (recombinant GST-RIPK1 kinase domain, residues 1-327) (Q13546 1-327): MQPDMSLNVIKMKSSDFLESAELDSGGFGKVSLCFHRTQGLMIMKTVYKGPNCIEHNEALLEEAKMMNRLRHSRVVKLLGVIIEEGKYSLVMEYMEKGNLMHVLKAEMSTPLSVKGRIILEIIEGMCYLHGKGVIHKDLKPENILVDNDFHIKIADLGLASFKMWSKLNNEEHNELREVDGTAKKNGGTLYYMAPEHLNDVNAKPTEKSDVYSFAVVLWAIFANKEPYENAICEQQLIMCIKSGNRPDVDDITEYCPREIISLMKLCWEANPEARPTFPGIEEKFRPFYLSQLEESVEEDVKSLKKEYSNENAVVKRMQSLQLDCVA
row,Compound,EC50 [nM]
1,"O=C(c1noc2c1CCCC2)N1CCC2(CC1)O[C@@H]1CC[C@@H](c3cc(F)cc(F)c3)N1C2=O [Example 6.17, (5′S,7a′R)-5′-(3,5-difluorophenyl)-1-(4,5,6,7-tetrahydro-1,2-benoxazole-3-carbonyl)tetrahydro-3′H-spiro[piperidine-4,2′-pyrrolo[2,1-b] [1,3]oxazol]-3′-one]",173
2,"N#Cc1ccc(C(=O)N2CCC3(CC2)O[C@@H]2CC[C@@H](c4cc(F)cc(F)c4)N2C3=O)cc1 [Example 5.21, 4-((5′S,7a′R)-5′-(3,5-difluorophenyl)-3′-oxo-tetrahydro-3′H-spiro [piperidine-4,2′-pyrrolo-[2,1-b]oxazole]-1-carbon-yl)benzonitrile]",342
3,"Cc1nc(N2CCC3(CC2)OC2CCC(c4cnccn4)N2C3=O)ccc1C#N (stereo not shown) [Example 4.142, 2-methyl-6-[3′-oxo-5′-(pyrazin-2-yl)tetrahydro-1H,3′H-spiro[piperidine-4,2′-pyrrolo[2,1-b] [1,3]oxazol]-1-yl]pyridine-3-carbonitrile]",< 25
4,"CC(C)(O)C#Cc1cccc(C(=O)N2CCC3(CC2)O[C@@H]2CC[C@@H](c4cc(F)cc(F)c4)N2C3=O)c1 [Example 5.24, (5′S,7a′R)-5′-(3,5-difluoro-phenyl)-1-(3-(3-hydroxy-3-methylbut-1-yn-1-yl)-benzoyl)tetrahydro-3′H-spiro[piperidine-4,2′-pyrrolo[2,1-b]oxazol]-3′-one]",< 25
5,"O=C(c1ccccc1)N1CCC2(CC1)S[C@@H]1CC[C@@H](c3ccccc3)N1C2=O [Example 1.23, (5′S,7a′R)-1-(benzenecarbonyl)-5′-phenyltetrahydro-3′H-spiro[piperidine-4,2′-pyrrolo[2,1-b] [1,3]thiazol]-3′-one]",26.1
6,"Cc1ccc(F)c(C(=O)N2CCC3(CC2)O[C@@H]2CC[C@@H](c4cccc(F)c4)N2C3=O)c1 [Example 6.133, (5′S,7a′R)-1-(2-fluoro-5-methylbenzene-1-carbonyl)-5′-(3-fluoro-phenyl)tetrahydro-3′H-spiro[piperidine-4,2′-pyrrolo[2,1-b] [1,3]oxazol]-3′-one]",< 25
7,"Cc1nc(N2CCC3(CC2)O[C@@H]2CC[C@@H](c4ccccc4)N2C3=O)ccc1C#N [Example 4.74, 2-methyl-6-[(5′S,7a′R)-3′-oxo-5′-phenyltetrahydro-1H,3′H-spiro[piperidine-4,2′-pyrrolo[2,1-b] [1,3]oxazol]-1-yl]pyridine-3-carbonitrile]",< 25
8,"O=C(c1cccc(F)c1)N1CCC2(CC1)O[C@@H]1CC[C@@H](c3ccccc3)N1C2=O [Example 6.154, (5′S,7a′R)-1-(3-fluoro-benzene-1-carbonyl)-5′-phenyltetrahydro-3′H-spiro[piperidine-4,2′-pyrrolo[2,1-b] [1,3]oxazol]-3′-one]",< 25
9,O=C(c1ccc(-n2nccn2)cc1)N1CCC2(CC1)O[C@@H]1CC[C@@H](c3cc(F)cc(F)c3)N1C2=O [Example 6.21],881
10,"O=C(c1ccoc1C(F)(F)F)N1CCC2(CC1)O[C@@H]1CC[C@@H](c3cc(F)cc(F)c3)N1C2=O [Example 6.67, (5′S,7a′R)-5′-(3,5-difluorophenyl)-1-[2-(trifluoromethyl)-furan-3-carbonyl]-tetrahydro-3′H-spiro [piperidine-4,2′-pyrrolo[2,1-b][1,3]-oxazol]-3′-one]",50
11,"O=C(c1cnon1)N1CCC2(CC1)O[C@@H]1CC[C@@H](c3cc(F)cc(F)c3)N1C2=O [Example 5.46, (5′S,7a′R)-5′-(3,5-difluoro-phenyl)-1-(1,2,5-oxazole-3-carbonyl)tetrahydro-3′H-spiro[piperidine-4,2′-pyrrolo-[2,1-b]oxazol]-3′-one]",444
12,"N#Cc1cnnc(N2CCC3(CC2)O[C@@H]2CC[C@@H](c4cc(F)cc(F)c4)N2C3=O)c1 [Example 4.19, 6-[(5′S,7a′R)-5′-(3,5-difluorophenyl)-3′-oxotetrahydro-1H,3′H-spiro[piperidine-4,2′-pyrrolo[2,1-b] [1,3]oxazol]-1-yl]pyridazine-4-carbonitrile]",477
13,"Cc1cccc(C(=O)N2CCC3(CC2)O[C@@H]2CC[C@@H](c4ccccc4)N2C3=O)c1F [Example 6.157, (5′S,7a′R)-1-(2-fluoro-3-methylbenzene-1-carbonyl)-5′-phenyl-tetrahydro-3′H-spiro [piperidine-4,2′-pyrrolo[2,1-b][1,3]-oxazol]-3′-one]",< 25
14,"Cc1ncc(C)c(N2CCC3(CC2)O[C@@H]2CC[C@@H](c4ccccc4)N2C3=O)n1 [Example 11.34, (5′S,7a′R)-1-(2,5-dimethylpyrimidin-4-yl)-5′-phenyltetrahydro-3′H-spiro[piperidine-4,2′-pyrrolo[2,1-b][1,3]oxazol]-3′-one]",601
15,"CCc1ccnc(C(=O)N2CCC3(CC2)O[C@@H]2CC[C@@H](c4cc(F)cc(F)c4)N2C3=O)c1 [Example 6.79, (5′S,7a′R)-5′-(3,5-difluorophenyl)-1-(4-ethylpyridine-2-carbonyl)tetrahydro-3′H-spiro[piperidine-4,2′-pyrrolo[2,1-b][1,3]oxazol]-3′-one]",38.3
16,"CCc1cnc(N2CCC3(CC2)O[C@@H]2CC[C@@H](c4cc(F)cc(F)c4)N2C3=O)nc1 [Example 4.60, (5′S,7a′R)-5′-(3,5-difluorophenyl)-1-(5-ethylpyrimidin-2-yl)tetrahydro-3′H-spiro[piperidine-4,2′-pyrrolo[2,1-b] [1,3]oxazol]-3′-one]",452
17,"O=C(c1nnn2ccccc12)N1CCC2(CC1)O[C@@H]1CC[C@@H](c3cc(F)cc(F)c3)N1C2=O [Example 5.66, (5′S,7a′R)-1-([1,2,3]-triazolo-[1,5-a]pyridine-3-carbonyl)-5′-(3,5-difluoro-phenyl)tetrahydro-3′H-spiro[piperidine-4,2′-pyrrolo[2,1-b]oxazol]-3′-one]",81.1
18,"O=C(c1ccccc1)N1CCC2(CC1)O[C@@H]1CC[C@@H](c3ccccc3)N1C2=O [Example 1.3, (5′S,7a′R)-1-(benzenecarbonyl)-5′-phenyltetrahydro-3′H-spiro[piperidine-4,2′-pyrrolo[2,1-b] [1,3]oxazol]-3′-one]",< 25
19,"COc1cccc(C(=O)N2CCC3(CC2)O[C@@H]2CC[C@@H](c4cc(F)cc(F)c4)N2C3=O)c1F [Example 6.7, (5′S,7a′R)-5′-(3,5-difluorophenyl)-1-(2-fluoro-3-methoxy-benzene-1-carbonyl) tetrahydro-3′H-spiro [piperidine-4,2′-pyrrolo[2,1-b][1,3]oxazol]-3′-one]",< 25
20,"O=C(c1cc(F)c(F)cc1F)N1CCC2(CC1)O[C@@H]1CC[C@@H](c3cc(F)cc(F)c3)N1C2=O [Example 5.4, (5′S,7a′R)-5′-(3,5-difluoro-phenyl)-1-(2,4,5-trifluoro-benzene-1-carbonyl)tetra-hydro-3′H-spiro[piperi-dine-4,2′-pyrrolo[2,1-b] [1,3]oxazol]-3′-one]",< 25
21,"CN(C)C(=O)c1ccc(N2CCC3(CC2)O[C@@H]2CC[C@@H](c4ccccc4)N2C3=O)nc1 [Example 4.167, N,N-dimethyl-6-[(5′S,7a′R)-3′-oxo-5′-phenyltetrahydro-1H,3′H-spiro[piperidine-4,2′-pyrrolo[2,1-b] [1,3]oxazol]-1-yl]pyridine-3-carboxamide]",259

# More lines, now with the values ahead:
row,EC50 [nM],Compound
1,< 25,"O=C1N2[C@@H](CC[C@H]2c2ccccc2)OC12CCN(c1ncc(-c3cnco3)cc1F)CC2 [Example 21.5, (5′S,7a′R)-1-[3-fluoro-5-(1,3-oxazol-5-yl)pyridin-2-yl]-5′-phenyltetrahydro-3′H-spiro[piperidine-4,2′-pyrrolo[2,1-b][1,3]oxazol]-3′-one]"
2,394,"COc1ccc(N2CCC3(CC2)O[C@@H]2CC[C@@H](c4ccccc4)N2C3=O)n2ncnc12 [Example 19.8, (5′S,7a′R)-1-(8-methoxy[1,2,4]triazolo [1,5-a]pyridin-5-yl)-5′-phenyltetrahydro-3′H-spiro[piperidine-4,2′-pyrrolo[2,1-b][1,3]oxazol]-3′-one]"
3,< 25,"COc1nc(N2CCC3(CC2)O[C@@H]2CC[C@@H](c4ccccc4)N2C3=O)ncc1-c1ncco1 [Example 21.10, (5′S,7a′R)-1-[4-methoxy-5-(1,3-oxazol-2-yl)pyrimidin-2-yl]-5′-phenyltetrahydro-3′H-spiro[piperidine-4,2′-pyrrolo[2,1-b][1,3]oxazol]-3′-one]"
4,24.9,"O=C1N2[C@@H](CC[C@H]2c2ccccc2F)OC12CN(c1cccc3ncnn13)C2 [Example 13.20, (5′S,7a′R)-1-([1,2,4]triazolo[1,5-a]pyridin-5-yl)-5′-(2-fluorophenyl)tetrahydro-3′H-spiro[azetidine-3,2′-pyrrolo[2,1-b]oxazol]-3′-one, TFA salt]"
5,< 25,"O=C1N2[C@@H](CC[C@H]2c2ccccc2)OC12CCN(c1cccc3ncnn13)CC2F (single isomer, unassigned) [Example 13.18, (3[S or R], 4 [R or S], 5′S,7a′R)-1-([1,2,4]triazolo[1,5-a]pyridin-5-yl)-3-fluoro-5′-phenyltetrahydro-3′H-spiro[piperidine-4,2′-pyrrolo[2,1-b]oxazol]-3′-one, TFA salt]"
6,25,"CCOc1cnc(N2CCC3(CC2)O[C@@H]2CC[C@@H](c4ccccc4)N2C3=O)n2ncnc12 [Example 19.7, (5′S,7a′R)-1-(8-ethoxy[1,2,4]triazolo [1,5-c]pyrimidin-5-yl)-5′-phenyltetrahydro-3′H-spiro[piperidine-4,2′-pyrrolo[2,1-b][l,3]oxazol]-3′-one]"
7,< 25,"O=C1N2C(CCC2c2cccc(F)c2F)OC12CCN(c1ccnc3ccnn13)CC2 (stereo not shown) [Example 20.7, 5′-(2,3-difluorophenyl)-1-(pyrazolo[1,5-a]pyrimidin-7-yl)tetrahydro-3′H-spiro[piperidine-4,2′-pyrrolo[2,1-b][1,3]oxazol]-3′-one]"
